34 compounds from patent US5298414A (priority 1989, dated 1994) can be followed below.

Test [1] deals with T1, morphine dehydrogenase (MDH) (Pseudomonas putida, UniProt Q02198). The experiment in a line: Substrate specificity of morphine dehydrogenase (Example 4). To be noted: 0.35 μg purified enzyme, pH 9.5. It is filed as biochemical, Pseudomonas putida MlO.
The target of test [2] is T1, morphine dehydrogenase (MDH). Nature of the test: Non-oxidation of steroids by morphine dehydrogenase (Example 2 standard assay). It is filed as biochemical, Pseudomonas putida MlO. Conditions: morphine replaced by the steroid in the standard assay.
For test [3] the target is unchanged. Format: biochemical, Pseudomonas putida MlO.
Test [4] has the same target. Nature of the test: biochemical. It is filed as biochemical, Pseudomonas putida MlO. To be noted: for (b) Relative activity: 16 h at 4° C. then 10 min at 30° C., no addition gives 16.
Test [5] has the same target. The experiment in a line: Cofactor requirement of MDH. Format: biochemical, Pseudomonas putida MlO.
Test [6] deals with acetylmorphine carboxylesterase (AMCE). The experiment in a line: Substrate specificity of the AMCE (HPLC). It is filed as biochemical, Rhodococcus Hl. Conditions: substrate 1.0 mM, purified AMCE 5 U, potassium phosphate buffer pH 7.5, 30° C.
The subject of test [7] is washed cells of P. putida MlO. It is filed as cell-based, Pseudomonas putida MlO.
[8] abbreviates: 10 min, read-out: (a) Relative activity.
The mark [9] stands for this setting: 16 h, read-out: (b) Relative activity.

“Also recorded” adds a separate entry of the source. Like-named read-outs stand apart in the source and are kept apart here.

T1 sequence (Q02198 whole entry): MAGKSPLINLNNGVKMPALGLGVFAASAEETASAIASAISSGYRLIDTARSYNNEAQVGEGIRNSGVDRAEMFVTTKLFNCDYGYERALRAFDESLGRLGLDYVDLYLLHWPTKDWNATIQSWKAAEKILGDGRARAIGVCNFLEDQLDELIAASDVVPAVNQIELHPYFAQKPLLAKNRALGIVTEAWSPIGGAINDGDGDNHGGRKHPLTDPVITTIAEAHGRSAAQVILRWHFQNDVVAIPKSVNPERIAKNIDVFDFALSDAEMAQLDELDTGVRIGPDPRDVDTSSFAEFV

As to `C[C@]12CC[C@@H](O)C[C@@H]1CC[C@@H]1[C@@H]2CC[C@]2(C)C(=O)CC[C@@H]12` (stereo in doubt) [androsterone], the “activity relative to 3 mM morphine” value in test [1] (final concentration 10 Mm) was “zero”. For the same compound, the “steroid dehydrogenase activity of MDH” value in test [2] is recorded as “No steroid dehydrogenase activity was detected”.

Regarding `OCc1ccccc1` [benzyl alcohol], in test [1] (alcohol substrates 50 mM), the “activity relative to 3 mM morphine” value is listed as “zero”.

In the case of `COc1ccc2c3c1O[C@H]1C(=O)C=C[C@H]4[C@@H](C2)N(C)CC[C@]314` [codeinone], the “reverse direction reaction with NADPH” value in test [3] is listed as “catalysed the oxidation of NADPH”. In addition, the “ability to serve as MDH substrate” value in test [3] (pH 10) was “completely inactive”.

Regarding `CCCO` [propanol], the “activity relative to 3 mM morphine” value in test [1] (alcohol substrates 50 mM) is “zero”.

As for `c1cnc2c(c1)ccc1cccnc12` [1,10-Phenanthroline], in test [4] (setting [8]), the activity at 50 µM amounted to 76% and the activity at 500 µM stood at 61%. For the same compound, in test [4] (setting [9]), the activity at 500 µM was found to be 14%.

Turning to `CC(C)O` [propan-2-ol], the “activity relative to 3 mM morphine” value in test [1] (alcohol substrates 50 mM) is recorded as “zero”.

Consider `O[C@H](CS)[C@H](O)CS` (racemic) [Dithiothreitol], for which the results for the activity at 1000 µM in test [4] (setting [8]) and in test [4] (setting [9]) were 97% and 64%, respectively.

Turning to nicotinamide hypoxanthine diphosphate, the “operability as cofactor for MDH” value in test [5] was “have not been found to be operable”.

`NC(=O)c1ccc[n+]([C@@H]2O[C@H](COP(=O)([O-])OP(=O)(O)OC[C@H]3O[C@@H](n4cnc5c(N)ncnc54)[C@H](O)[C@@H]3O)[C@@H](O)[C@H]2O)c1` [NAD^+]: the “operability as cofactor for MDH” value in test [5] is “shown not to be a substrate; also recorded: have not been found to be operable”.

Regarding `CN1CC[C@]23c4c5ccc(OCCN6CCOCC6)c4O[C@H]2[C@@H](O)C=C[C@H]3[C@H]1C5` [pholcodeine], the “ability to serve as MDH substrate” value in test [3] (pH 10) is “completely inactive; also recorded: Inactivity”.

As for 3-acetylpyridine ADP, in test [5], the “operability as cofactor for MDH” value is “operable”.

With `CC(=O)O[C@H]1C=C[C@H]2[C@H]3Cc4ccc(O)c5c4[C@@]2(CCN3C)[C@H]1O5` [6-acetylmorphine], the “ability to serve as MDH substrate” value in test [3] (pH 10) was “completely inactive; also recorded: no activity”. The “activity relative to 3 mM morphine” value in test [1] (alkaloid substrates 3 mM) was “zero”. The “time taken to reduce the substrate concentration by 20%” value in test [6] was determined as 4 h.

Turning to `c1ccc(-c2ccccn2)nc1` [2,2'-Dipyridyl], in test [4] (setting [8]), the activity at 50 µM is 75% and the activity at 500 µM came to 67%. The activity at 500 µM in test [4] (setting [9]) was 9%.

Regarding `CC(=O)Oc1ccc2c3c1O[C@H]1[C@@H](O)C=C[C@H]4[C@@H](C2)N(C)CC[C@@]341` [3-acetylmorphine], the “time taken to reduce the substrate concentration by 20%” value in test [6] stood at 0.033 h.

As for `O=C(O)CI` [Iodoacetate], in test [4] (setting [8]), the activity at 100 µM was found to be 61%, the activity at 1000 µM turned out to be 58% and the activity at 10000 µM amounted to 54%. In addition, the activity at 10000 µM in test [4] (setting [9]) turned out to be 30%.

For `Oc1cccc2cccnc12` [8-Hydroxyquinoline], the “(a) Relative activity” value in test [4] (purified mdh, 10 min, 50 µM) came to 100%.

With `CN1CC[C@]23c4c5ccc(O[C@@H]6O[C@H](C(=O)O)[C@@H](O)[C@H](O)[C@H]6O)c4O[C@H]2[C@@H](O)C=C[C@H]3[C@H]1C5` [morphine glucuronide], the “ability to serve as MDH substrate” value in test [3] (pH 10) is “completely inactive; also recorded: Inactivity”.

`OCCS` [Mercaptoethanol]: the activity at 1000 µM in test [4] (setting [8]) amounted to 100%; in test [4] (setting [9]) it was 73%.

For `O=C(O)C(O)c1ccccc1` (racemic) [D,L-mandelic acid], the “activity relative to 3 mM morphine” value in test [1] (final concentration 10 Mm) was “zero”.

For `O=S(=O)([O-])[O-].[Cu+2]` [CuSO4], in test [4] (reagent 0.1 mM, 10 min at room temperature, 100% = 67 U/mg), the “(a) Relative activity” value was determined as 34%. Also, the “(b) Relative activity” value in test [4] (reagent 0.1 mM) was determined as 5%.

As for `CN1CC[C@]23c4c5ccc(O)c4O[C@H]2[C@@H](O)C=C[C@H]3[C@H]1C5` [morphine], in test [3] (pH 10), the “specific activity as MDH substrate” value was 0.002 μmol/min./mg. protein. In addition, in test [1] (3 mM substrate), the dehydrogenase activity was determined as 0.0252 μmol NADPH/min.

On to `OC1CCCCC1` [cyclohexanol], for which the “activity relative to 3 mM morphine” value in test [1] (alcohol substrates 50 mM) is given as “zero”.

For `O=C(O)CN(CCN(CC(=O)O)CC(=O)O)CC(=O)O` [EDTA], the activity at 500 µM in test [4] (setting [8]) stood at 104%; in test [4] (setting [9]), 18%.

In the case of `O=C(O)c1cc[c]([Hg+])cc1.[OH-]` [p-Hydroxymercuribenzoate], the “(a) Relative activity” value in test [4] (reagent 0.01 mM, 10 min at room temperature, 100% = 67 U/mg) was found to be 0%. Further, the “(b) Relative activity” value in test [4] (reagent 0.01 mM) was found to be 0%. The “activity recovered after incubation with 3 mM dithiothreitol for 10 min” value worked out at 45% in test [4] (reagent 0.01 mM, incubation (a)) and 23% in test [4] (reagent 0.01 mM, incubation (b)).

Regarding `COc1ccc2c3c1O[C@H]1[C@@H](O)C=C[C@H]4[C@@H](C2)N(C)CC[C@@]341` [codeine], in test [3] (pH 10), the “activity relative to morphine” value was 1.7 times that of morphine. For the same compound, in test [1] (alkaloid substrates 3 mM), the “activity relative to 3 mM morphine” value amounted to 120%. Moreover, the “metabolism by washed cells grown on heroin” value (“metabolism” below) in test [7] is “readily metabolised”.

Regarding `COc1ccc2c3c1O[C@H]1[C@@H](O)CC[C@H]4[C@@H](C2)N(C)CC[C@@]341` [dihydrocodeine], in test [3] (pH 10), the “ability to serve as MDH substrate” value is “completely inactive; also recorded: did not show any activity”. Further, in test [1] (alkaloid substrates 3 mM), the “activity relative to 3 mM morphine” value worked out at 7.1%.

`NC(=O)c1ccc[n+]([C@@H]2O[C@H](COP(=O)([O-])OP(=O)(O)OC[C@H]3O[C@@H](n4cnc5c(N)ncnc54)[C@H](OP(=O)(O)O)[C@@H]3O)[C@@H](O)[C@H]2O)c1` [NADP^+, nicotinamide adenine dinucleotide phosphate]: in test [5], the “operability as cofactor for MDH” value is recorded as “absolute requirement”.

For `CCC(C)O` (stereo not drawn) [butan-2-ol], the “activity relative to 3 mM morphine” value in test [1] (alcohol substrates 50 mM) is recorded as “zero”.

As for `CCN1C(=O)C=CC1=O` [N-Ethylmaleimide], the activity at 50 µM in test [4] (setting [8]) is 100%. The activity at 1000 µM in test [4] (setting [8]) was 58%; in test [4] (setting [9]) it was 23%.

In the case of `CCO` [ethanol], the “ability to serve as MDH substrate” value in test [3] was “negative result”; in test [3] (pH 10) it was “completely inactive; also recorded: does not oxidise”. Also, in test [1] (alcohol substrates 50 mM), the “activity relative to 3 mM morphine” value is “zero”.

In the case of `COC1=CC=C2[C@H]3Cc4ccc(OC)c5c4[C@@]2(CCN3C)[C@H]1O5` [thebaine], the “ability to serve as MDH substrate” value in test [3] (pH 10) was “completely inactive”. The “metabolism” value in test [7] was “not degraded at all”.

`COc1ccc2c3c1O[C@H]1C(=O)CC[C@@]4(O)[C@@H](C2)N(C)CC[C@]314` [oxycodone]: the “ability to serve as MDH substrate” value in test [3] (pH 10) is “completely inactive; also recorded: no activity”.

With `C[C@]12CC[C@H]3[C@@H](CCC4=CC(=O)CC[C@@]43C)[C@@H]1CC[C@@H]2O` [testosterone], the “activity relative to 3 mM morphine” value in test [1] (final concentration 10 Mm) was “zero”. Moreover, the “steroid dehydrogenase activity of MDH” value in test [2] is listed as “No steroid dehydrogenase activity was detected”.

Consider `CCOc1ccc2c3c1O[C@H]1[C@@H](O)C=C[C@H]4[C@@H](C2)N(C)CC[C@@]341` [ethylmorphine], for which, in test [3] (pH 10), the “activity relative to morphine” value is on record as 1.2 times that of morphine. Besides, in test [7], the “metabolism” value is listed as “readily metabolised”.
